Molecules are shown by their SMILES.

This test addresses aspartyl proteases, in particular, beta-secretase. Nature of the test: Ki of the compounds listed in Tables 1 and 2 (no method described). The format is biochemical. As to conditions: Table 1, compounds of formula Ia, W is -(CH2)n-.
Usually Ki stands for the equilibrium dissociation constant of an inhibitor or competing ligand from its target. The molecule `CC(C)CN([C@@H](CCCCNC(=O)CCc1ccccc1)C(=O)O)S(=O)(=O)c1ccc(N)cc1` [Compound No. 158, Nα-isobutyl-Nα-(4-aminobenzenesulfonyl)-Nε-dihydrocinnamoyl-L-lysine] yielded a Ki of more than 300 nM. Molecule `O=C(N[C@@H](CCCCNS(=O)(=O)c1ccc2ccccc2c1)C(=O)O)OCC1c2ccccc2-c2ccccc21` [Compound No. 32, Nε-(2-naphthalenesulfonyl)-Nα-(9-fluorenylmethoxycarbonyl)-L-lysine] registered a Ki of 10000 nM. For `O=C(O)[C@H](CCCCNS(=O)(=O)c1ccc(Br)cc1)NC(=O)C(O)(c1ccccc1)c1ccccc1` [Compound No. 37, Nα-(diphenylhydroxyacetyl)-Nε-(4-bromobenzenesulfonyl)-L-lysine] the value was 54000 nM. As to `CC(C)CN([C@@H](CCCCNS(=O)(=O)Cc1ccccc1)C(=O)O)S(=O)(=O)c1ccc([N+](=O)[O-])cc1` [Compound No. 115, Nα-isobutyl-Nα-(4-nitrobenzenesulfonyl)-Nε-benzylsulfonyl-L-lysine], the Ki was more than 300 nM.

In turn, `CC(C)CN(C(CCCCNC(=O)OCC1c2ccccc2-c2ccccc21)C(=O)O)S(=O)(=O)c1ccc(F)cc1` (racemic) [Compound No. 3, Nα-isobutyl-Nα-(4-fluorobenzenesulfonyl)-Nε-(9-fluorenylmethoxycarbonyl)-DL-lysine] yielded an inhibition constant (Ki) of 17.4 nM. In turn, `O=C(N[C@@H](CCCCNS(=O)(=O)c1ccc([N+](=O)[O-])cc1)C(=O)O)OCC1c2ccccc2-c2ccccc21` [Compound No. 50, Nε-(4-nitrobenzenesulfonyl)-Nα-(9-fluorenylmethoxycarbonyl)-L-lysine] yielded a Ki of 6000 nM. For `CC(C)CN([C@@H](CCCCNC(=O)OCc1ccccc1)C(=O)OCc1ccccc1)S(=O)(=O)c1ccc([N+](=O)[O-])cc1` [Compound No. 78, Nα-isobutyl-Nα-(4-nitrobenzenesulfonyl)-Nε-benzyloxycarbonyl-L-lysine Benzyl Ester] the value was more than 1250 nM. As for `Cc1ccc(S(=O)(=O)N(CC(C)C)C(CCCCNC(=O)C=Cc2ccccc2)C(=O)O)cc1` (stereo not drawn) [compound 90], the figure is 747 nM; as for `Cc1ccc(S(=O)(=O)N(CC(C)C)[C@@H](CCCCNC(=O)CCc2ccccc2)C(=O)O)cc1` [compound 91], 8 nM; as for `COc1cccc(C=CC(=O)NCCCC[C@@H](C(=O)O)N(CC(C)C)S(=O)(=O)c2ccc([N+](=O)[O-])cc2)c1OC` [compound 110, Nα-isobutyl-Nα-(4-nitrobenzenesulfonyl)-Nε-(2,3-dimethoxycinnamoyl)-L-lysine], more than 300 nM. For `CC(C)CN(CCCC[C@H](NC(=O)OCC1c2ccccc2-c2ccccc21)C(=O)O)S(=O)(=O)c1ccc(Br)cc1` [Compound No. 21, Nα-(9-fluorenylmethoxycarbonyl)-Nε-isobutyl-Nε-(4-bromobenzenesulfonyl)-L-lysine] the value was 2000 nM; for `O=C(N[C@@H](CCCCNS(=O)(=O)c1ccc(F)cc1)C(=O)O)OCC1c2ccccc2-c2ccccc21` [Compound No. 55, Nε-(4-fluorobenzenesulfonyl)-Nα-(9-fluorenylmethoxycarbonyl)-L-lysine], 6500 nM; for `O=C(N[C@@H](CCCCNS(=O)(=O)c1ccc(Br)cc1)C(=O)O)OCC1c2ccccc2-c2ccccc21` [Compound No. 16, Nε-(4-bromobenzenesulfonyl)-Nα-(9-fluorenylmethoxycarbonyl)-L-lysine], 13000 nM.

For the molecule `O=C(O)[C@H](CCCNS(=O)(=O)c1ccc(Br)cc1)NS(=O)(=O)c1ccc(Br)cc1` [Compound No. 57, Nα,Nε-di-(4-bromobenzenesulfonyl)-L-ornithine], the Ki is 42400 nM.

`COc1cccc(CCC(=O)NCCCC[C@@H](C(=O)O)N(CC(C)C)S(=O)(=O)c2ccc(N)cc2)c1` [Compound No. 156, Nα-isobutyl-Nα-(4-aminobenzenesulfonyl)-Nε-(3-methoxydihydrocinnamoyl)-L-lysine]: the inhibition constant Ki amounted to 16.7 nM.

Values taken from patent US20060079550A1, “Amino acid derivatives useful for the treatment of alzheimer's disease” (priority 2001, published 2006).
